{"source": "patent US10556005B2", "about": "(priority 2011, dated 2020)", "key": {"[1]": {"test": "Observation of administered mice for abnormality / induration at topical area", "assay_type": "in vivo", "conditions": "mice administered with citrulline; compared with induration seen where Alum is administered"}, "[2]": {"tested_on": "HA antigen of influenza virus (strain: A/Solomon)", "parameters": "species or system BALB/c mice", "conditions": "mouse, in vivo, sc"}}}
{"smiles": "NC(=O)NCCCC(N)C(=O)O", "note": "(centres unmarked) [citrulline, 2-amino-5-(carbamoylamino)-pentanoic acid]", "values": [{"measurement": "abnormality / induration in mice administered", "setting": "[1]", "value": "neither abnormality nor induration"}, {"measurement": "adjuvant effect compared with Alum adjuvant (in words)", "setting": "[2]", "value": "same extent as that of Alum adjuvant"}]}
